Measured values as given in PubChem BioAssay (NCI).
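96-well plates; 48 h exposure; 5 concentrations. Endpoints by linear interpolation between flanking doses. Not reached: highest tested concentration assigned. At the GI50, growth is halved. At the TGI there is no net growth.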 *1 amine or outer side, *2 acyl side, *3 side chain or, on linkers, in order; H or OH if unused. Where a SMILES comes first, the peptide text is derived from it. [ ]: non-standard residue; d: D form. The star is where a group is joined. X11 = C/C=C/CC(C)C(O)[C@H](N[*:1])C(=O)[*:2]; Decanoyl = CCCCCCCCCC(=O)*; Leu(ol) = CC(C)C[C@H](N)CO; Iva = CC[C@](C)(N)C(=O)O; Aib = CC(C)(N)C(=O)O

Legend:
Assay in all cases: NCI tumour cell line growth inhibition, 48 h
[1] = system: NCI-H23 lung
[2] = system: UACC-62 melanoma
[3] = system: SF-295 CNS
[4] = system: A549 NSCLC
[5] = system: OVCAR-3 ovarian
[6] = system: HL-60(TB) leukemia
[7] = system: SK-MEL-5 melanoma
[8] = system: NCI-H460 lung
[9] = system: MALME-3M melanoma
[10] = system: MDA-MB-435
[11] = system: PC-3 prostate
[12] = system: RXF 393 renal
[13] = system: HCC-2998 colon
[14] = system: SNB-75 CNS
[15] = system: SK-MEL-2 melanoma
[16] = system: HCT-116 colon
[17] = system: UACC-257 melanoma
[18] = system: NCI-H226 lung
[19] = system: IGROV1 ovarian
[20] = system: M14 melanoma
[21] = system: NCI/ADR-RES ovarian
[22] = system: DU-145 prostate
[23] = system: BT-549 breast
[24] = system: SW-620 colon
[25] = system: 786-0 renal
[26] = system: CCRF-CEM leukemia
[27] = system: U251 CNS
[28] = system: A498 renal
[29] = system: CAKI-1 renal

In the case of C/C=C/CC(C)C(O)[C@H](NC(=O)[C@@H]1CCCN1C(=O)C(C)(C)NC(=O)CCCCCCCCC)C(=O)N[C@@](C)(CC)C(=O)N[C@@H](CCC(N)=O)C(=O)N[C@H](CCC(N)=O)C(=O)NC(C)(C)C(=O)NC(C)(C)C(=O)N[C@@H](CCC(N)=O)C(=O)N[C@H](CC(C)C)C(=O)N[C@H](CO)CC(C)C (stereo partly drawn) (Decanoyl-[Aib]P[X11][Iva]Q[dQ][Aib][Aib]Q[dL][Leu(ol)]), the GI50 [1] is reported as 2.32 µM, the TGI [1] is reported as 5.42 µM and the GI50 [2] is reported as 1.75 µM. The TGI [2] was 3.38 µM, the GI50 [3] was 1.76 µM and the TGI [3] was 3.32 µM. It also gave a GI50 [4] of 3.02 µM, a TGI [4] of 9.38 µM and a GI50 [5] of 2.02 µM. It also gave a TGI [5] of 4.35 µM, a GI50 [6] of 1.93 µM and a TGI [6] of 4.12 µM. It also gave a GI50 [7] of 1.79 µM, a TGI [7] of 3.3 µM and a GI50 [8] of 1.86 µM. It also gave a TGI [8] of 3.45 µM, a GI50 [9] of 1.56 µM and a TGI [9] of 2.96 µM. The GI50 [10] was 1.68 µM, the TGI [10] was 3.05 µM and the GI50 [11] was 1.84 µM. For the same compound, the TGI [11] was 3.65 µM, the GI50 [12] was 2.15 µM and the TGI [12] was 4.01 µM. For the same compound, the GI50 [13] was 2.16 µM, the TGI [13] was 4.63 µM and the GI50 [14] was 1.48 µM. For the same compound, the TGI [14] was 2.98 µM, the GI50 [15] was 1.81 µM and the TGI [15] was 3.49 µM. It also gave a GI50 [16] of 2.41 µM, a TGI [16] of 6.09 µM and a GI50 [17] of 1.77 µM. It also gave a TGI [17] of 3.37 µM, a GI50 [18] of 2.07 µM and a TGI [18] of 4.56 µM. It also gave a GI50 [19] of 2.34 µM, a TGI [19] of 6.31 µM and a GI50 [20] of 1.81 µM. For the same compound, the TGI [20] was 3.44 µM, the GI50 [21] was 2.04 µM and the TGI [21] was 4.45 µM. For the same compound, the GI50 [22] was 1.73 µM, the TGI [22] was 3.13 µM and the GI50 [23] was 1.98 µM. It also gave a TGI [23] of 3.67 µM, a GI50 [24] of 2.75 µM and a TGI [24] of 7.17 µM. For the same compound, the GI50 [25] was 1.81 µM, the TGI [25] was 3.35 µM and the GI50 [26] was 2.04 µM. The TGI [26] was 4.4 µM, the GI50 [27] was 1.75 µM and the TGI [27] was 3.36 µM. It also gave a GI50 [28] of 1.94 µM, a TGI [28] of 3.68 µM and a GI50 [29] of 2.13 µM. For the same compound, the TGI [29] was 5.02 µM.
